The conditions of series [1]: for first order rate constants k1, k2 used for the dissolution formula: restated.
Source text: The rate of dissolution of the taxane therapeutic agent can vary based on the elution medium being used and the solid form of the taxane therapeutic agent before dissolution. An elution profile can be obtained by any suitable method that allows for measurement of the release of the taxane therapeutic agent from the coating in a manner that can be measured with a desired level of accuracy and precision. In one embodiment, the elution profile of the release of a taxane therapeutic agent is obtained by contacting the medical device with a suitable elution medium. The elution medium can be formulated to simulate conditions present at a particular point of treatment within a body vessel. For example, an elution medium comprising porcine serum can be used to simulate implantation within a blood vessel. The release of taxane therapeutic agent from the medical device can be measured by any suitable spectrographic method, such as measurement of a UV absorption spectrum of the test fluid after contacting the medical device. Typically, the intensity of absorption at characteristic UV absorption peak, such as about 227 nm, can be correlated to the presence and amount of a taxane therapeutic agent in a sample. The amount of taxane therapeutic agent on the medical device can be determined by contacting the medical device with a suitable elution medium and detecting the amount of taxane therapeutic agent released from the medical device into the elution medium.
Preferably, the coated medical device can be contacted with a modified porcine serum elution medium at a constant flow rate of 16 mL/min for a desired period of time (e.g., 6-24 hours) sufficient to elute the aPTX present on the stent. The percentage of the taxane therapeutic agent dissolved can be measured as a function of time by monitoring the optical density of the first elution medium at 227 nm after contacting the coated stent, as described above. The modified porcine serum elution medium can be prepared by adding 0.104 mL of a 6.0 g/L Heparin solution to porcine serum at 37° C. and adjusting the pH to 5.6+/−0.3 using a 20% v/v aqueous solution of acetic acid. The elution rate profile of the taxane therapeutic agent can be measured for any desired period, and correlated to the amount of aPTX in the coating. Subsequently, the coated medical device is contacted with a second elution medium comprising 0.3% sodium dodecyl sulfate (SDS) at 25° C. a constant flow rate of 16 mL/min for a suitable time period to elute the dPTX present in the coating. The elution rate profile of the taxane therapeutic agent can be measured for any desired period, and correlated to the amount of aPTX (e.g., by elution in porcine serum) and dPTX (e.g., by subsequent elution in SDS) in the coating.
Series [2] is described as follows: Elution of paclitaxel coatings in 0.3% sodium dodecyl sulfate (SDS). In kind it is physicochemical. To be noted: 0.3% SDS, 25° C.; FIGS. 7A-7B. An excerpt:
Taxane therapeutic agents can have different elution profiles in different elution media. Another suitable elution medium for taxane therapeutic agent is sodium dodecyl sulfate (SDS).

The nature of series [3]: Elution of paclitaxel coatings in aqueous Heptakis-(2,6-di-O-methyl)-β-cyclodextrin (HCD). In kind it is physicochemical. To be noted: 0.5% w/w aqueous HCD, 25° C.; within about 1 hour. The text has this: A preferred first elution medium is an aqueous solution comprising 0.1% to about 10% of a cyclodextrin. In one aspect, an elution profile may be obtained by contacting a coated medical device comprising a taxane therapeutic agent with an elution medium comprising a cyclodextrin. A cyclodextrin is a cyclic oligosaccharide formed from covalently-linked glucopyranose rings defining an internal cavity. The diameter of the internal axial cavity of cyclodextrins increases with the number of glucopyranose units in the ring. The size of the glucopyranose ring can be selected to provide an axial cavity selected to match the molecular dimensions of a taxane therapeutic agent. The cyclodextrin is preferably a modified beta-cyclodextrin, such as Heptakis-(2,6-di-O-methyl)-β-cyclodextrin (HCD). Suitable cyclodedtrin molecules include other β-cyclodextrin molecules, as well as γ-cyclodextrin structures.
Preferably, the cyclodextrin elution medium is formulated to provide distinguishable elution rates for different coating configurations, providing different elution profiles for different solid forms of a taxane therapeutic agent in the coating. […] For example, the elution medium may contact a medical device coating in a continuous flow configuration, or in a batch testing configuration.
Taxane therapeutic agents typically have different elution profiles in different elution media.

As for `CC(=O)O[C@H]1C(=O)[C@@]2(C)[C@H]([C@H](OC(=O)c3ccccc3)[C@]3(O)C[C@H](OC(=O)[C@H](O)[C@@H](NC(=O)c4ccccc4)c4ccccc4)C(C)=C1C3(C)C)[C@]1(OC(C)=O)CO[C@@H]1C[C@@H]2O` [amorphous paclitaxel, paclitaxel], in series [1] (continuous flow of porcine serum, FIG. 14, Example 6), the “time within which substantially all of the paclitaxel eluted” value is listed as “less than 5 hours”. For the same molecule, the “half life of elution” value in series [1] (pig, serum) is “about 30 minutes”. Moreover, in series [1] (porcine serum, 37° C., single-layer coating on vascular stent, within about 6.5 hours (400 minutes)), the “percentage of the coating dissolved” value is recorded as 100%. In addition, in series [1] (porcine serum), the “first order rate constants k1, k2 used for the dissolution formula” value is 0.0244 min⁻¹. In addition, in series [2], the “rate of elution compared with dihydrate paclitaxel” value is recorded as “more rapid”. The “percentage of paclitaxel dissolved/released” value in series [3] is reported as “about 80%”.

As to `CC(=O)O[C@H]1C(=O)[C@@]2(C)[C@H]([C@H](OC(=O)c3ccccc3)[C@]3(O)C[C@H](OC(=O)[C@H](O)[C@@H](NC(=O)c4ccccc4)c4ccccc4)C(C)=C1C3(C)C)[C@]1(OC(C)=O)CO[C@@H]1C[C@@H]2O` [dihydrate paclitaxel, paclitaxel], in series [1] (porcine serum (25° C.) as printed), the “first order rate constant of elution” value was “about 0.0003 min^−1”. Besides, the “percentage of the coating eluted” value in series [1] (porcine serum, 37° C., single-layer coating on vascular stent, after about 24 hours) is “less than 40%”. Besides, the “first order rate constants k1, k2 used for the dissolution formula” value in series [1] (porcine serum) stood at 0.0003 min⁻¹. For the same molecule, in series [3], the “percentage of paclitaxel dissolved/released” value is recorded as “less than 20%”.

Values taken from patent US7875284B2, “Methods of manufacturing and modifying taxane coatings for implantable medical devices” (Cook Incorporated, priority 2006, dated 2011).
